Laboratory results as given in ChEMBL document CHEMBL1147725, “Identification and biological characterization of 6-aryl-7-isopropylquinazolinones as novel TRPV1 antagonists that are effective in models of chronic pain” (J Med Chem, 2006).
pIC50: −log10 of the molar value.

What was measured:
Rattus norvegicus [1] = assay: Cmax in rat brain at 1 mg/kg, iv; assay type: ADME, organism-based, Wistar Han; design: dose 1 mg/kg, route intravenous; details: in vivo
[2] = Plasma concentration in rat at 1 mg/kg, iv after 0.5 hrs; assay type: ADME, organism-based; design: dose 1 mg/kg, route intravenous; details: Wistar Han
[3] = Plasma concentration in rat at 10 mg/kg, po after 0.16 hrs; assay type: ADME, organism-based; design: dose 10 mg/kg, route oral; details: Wistar Han
[4] = Plasma concentration in rat at 3 mg/kg, po after 6 hrs; assay type: ADME, organism-based; design: dose 3 mg/kg, route oral; details: Wistar Han
Rattus norvegicus [5] = assay: Concentration in rat brain at 3 mg/kg, po after 24 hrs; assay type: ADME, organism-based, Wistar Han; design: dose 3 mg/kg, route oral; details: in vivo
[6] = Plasma concentration in rat at 10 mg/kg, po after 9 hrs; assay type: ADME, organism-based; design: dose 10 mg/kg, route oral; details: Wistar Han
Rattus norvegicus [7] = assay: Concentration in rat brain at 10 mg/kg, po after 18 hrs; assay type: ADME, organism-based, Wistar Han; design: dose 10 mg/kg, route oral; details: in vivo
[8] = target: Transient receptor potential cation channel subfamily V member 1 (Rattus norvegicus, UniProt O35433); assay: Inhibition of low pH activation of rat TRPV1; assay type: functional
Transient receptor potential cation channel subfamily V member 1 (Rattus norvegicus, UniProt O35433), sequence (O35433 whole entry): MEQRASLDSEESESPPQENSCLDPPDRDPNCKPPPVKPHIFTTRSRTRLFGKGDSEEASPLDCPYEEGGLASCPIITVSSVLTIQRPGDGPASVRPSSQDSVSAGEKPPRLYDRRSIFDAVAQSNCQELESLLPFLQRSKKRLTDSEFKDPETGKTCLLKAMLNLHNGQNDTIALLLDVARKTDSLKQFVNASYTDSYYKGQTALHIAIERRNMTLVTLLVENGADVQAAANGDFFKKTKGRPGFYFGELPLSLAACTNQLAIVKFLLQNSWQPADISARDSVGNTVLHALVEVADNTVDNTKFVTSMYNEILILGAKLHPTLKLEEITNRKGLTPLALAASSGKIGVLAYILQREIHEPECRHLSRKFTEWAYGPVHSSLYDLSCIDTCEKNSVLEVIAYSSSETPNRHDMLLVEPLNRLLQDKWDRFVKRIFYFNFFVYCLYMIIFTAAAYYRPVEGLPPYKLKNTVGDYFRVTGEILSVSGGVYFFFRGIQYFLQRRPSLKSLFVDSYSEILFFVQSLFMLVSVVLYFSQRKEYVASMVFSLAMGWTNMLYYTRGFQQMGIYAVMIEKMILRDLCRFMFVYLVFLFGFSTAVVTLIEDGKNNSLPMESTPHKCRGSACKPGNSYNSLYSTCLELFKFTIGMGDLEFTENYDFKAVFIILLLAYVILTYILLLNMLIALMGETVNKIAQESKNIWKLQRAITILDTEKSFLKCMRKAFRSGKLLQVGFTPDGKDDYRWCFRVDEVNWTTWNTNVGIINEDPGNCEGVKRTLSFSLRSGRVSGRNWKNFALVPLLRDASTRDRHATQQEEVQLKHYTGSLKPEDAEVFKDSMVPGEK

[9] = Tmax in rat brain at 1 mg/kg, iv; assay type: ADME, organism-based; design: dose 1 mg/kg, route intravenous; details: Wistar Han
[10] = Plasma concentration in rat at 1 mg/kg, iv after 6 hrs; assay type: ADME, organism-based; design: dose 1 mg/kg, route intravenous; details: Wistar Han
Rattus norvegicus [11] = assay: Concentration in rat brain at 1 mg/kg, iv after 2 hrs; assay type: ADME, organism-based, Wistar Han; design: dose 1 mg/kg, route intravenous; details: in vivo
[12] = Plasma concentration in rat at 1 mg/kg, iv after 2 hrs; assay type: ADME, organism-based; design: dose 1 mg/kg, route intravenous; details: Wistar Han
Rattus norvegicus [13] = assay: Concentration in rat brain at 1 mg/kg, iv after 0.033 hrs; assay type: ADME, organism-based, Wistar Han; design: dose 1 mg/kg, route intravenous; details: in vivo
[14] = Terminal half life in rat at 3 mg/kg, po; assay type: ADME, organism-based; design: dose 3 mg/kg, route oral; details: Wistar Han, in vivo, read-out: beta t1/2 (converted)
[15] = Oral Bioavailability in rat at 3mg/kg; assay type: ADME, organism-based; details: Wistar Han, in vivo
[16] = Plasma concentration in rat at 3 mg/kg, po after 0.16 hrs; assay type: ADME, organism-based; design: dose 3 mg/kg, route oral; details: Wistar Han
Rattus norvegicus [17] = assay: Cmax in rat brain at 3 mg/kg, po; assay type: ADME, organism-based, Wistar Han; design: dose 3 mg/kg, route oral; details: in vivo
Rattus norvegicus [18] = assay: Concentration in rat brain at 1 mg/kg, iv after 1.5 hrs; assay type: ADME, organism-based, Wistar Han; design: dose 1 mg/kg, route intravenous; details: in vivo
Rattus norvegicus [19] = assay: Concentration in rat brain at 1 mg/kg, iv after 6 hrs; assay type: ADME, organism-based, Wistar Han; design: dose 1 mg/kg, route intravenous; details: in vivo
Rattus norvegicus [20] = assay: Concentration in rat brain at 1 mg/kg, iv after 0.16 hrs; assay type: ADME, organism-based, Wistar Han; design: dose 1 mg/kg, route intravenous; details: in vivo
Rattus norvegicus [21] = assay: Concentration in rat brain at 10 mg/kg, po after 24 hrs; assay type: ADME, organism-based, Wistar Han; design: dose 10 mg/kg, route oral; details: in vivo
[22] = Clearance in rat at 1 mg/kg, iv; assay type: ADME, organism-based; design: dose 1 mg/kg, route intravenous; details: Wistar Han, in vivo
Rattus norvegicus [23] = assay: Concentration in rat brain at 10 mg/kg, po after 6 hrs; assay type: ADME, organism-based, Wistar Han; design: dose 10 mg/kg, route oral; details: in vivo
[24] = Terminal half life in rat at 1 mg/kg, iv; assay type: ADME, organism-based; design: dose 1 mg/kg, route intravenous; details: Wistar Han, in vivo, read-out: beta t1/2 (converted)
[25] = target: Transient receptor potential cation channel subfamily V member 1 (Homo sapiens, UniProt Q8NER1); assay: Inhibition of calcium influx evoked by capsaicin in human TRPV1 expressing cells by fluorescence assay; assay type: functional
Transient receptor potential cation channel subfamily V member 1 (Homo sapiens, UniProt Q8NER1), sequence (Q8NER1 whole entry): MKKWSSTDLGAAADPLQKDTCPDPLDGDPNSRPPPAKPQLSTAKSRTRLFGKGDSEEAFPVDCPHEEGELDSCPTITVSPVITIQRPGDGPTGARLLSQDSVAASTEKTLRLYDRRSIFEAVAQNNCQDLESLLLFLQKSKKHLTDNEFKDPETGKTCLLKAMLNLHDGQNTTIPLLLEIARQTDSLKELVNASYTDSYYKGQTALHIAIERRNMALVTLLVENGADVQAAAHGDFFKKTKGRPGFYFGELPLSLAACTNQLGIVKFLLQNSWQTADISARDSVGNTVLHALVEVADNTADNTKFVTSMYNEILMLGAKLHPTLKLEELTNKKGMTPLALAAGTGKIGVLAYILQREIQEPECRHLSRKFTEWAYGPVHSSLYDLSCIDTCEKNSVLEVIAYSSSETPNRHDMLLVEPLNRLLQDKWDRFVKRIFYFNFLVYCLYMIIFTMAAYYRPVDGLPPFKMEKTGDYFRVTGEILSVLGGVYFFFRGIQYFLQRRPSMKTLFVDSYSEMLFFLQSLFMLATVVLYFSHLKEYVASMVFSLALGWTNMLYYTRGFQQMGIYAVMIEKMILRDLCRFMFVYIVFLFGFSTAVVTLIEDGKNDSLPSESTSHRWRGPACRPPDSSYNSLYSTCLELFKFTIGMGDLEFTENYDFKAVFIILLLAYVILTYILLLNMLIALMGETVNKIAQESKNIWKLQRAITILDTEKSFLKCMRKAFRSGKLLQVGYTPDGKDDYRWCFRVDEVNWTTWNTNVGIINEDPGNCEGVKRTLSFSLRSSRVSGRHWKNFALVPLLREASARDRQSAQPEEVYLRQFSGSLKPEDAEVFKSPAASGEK

[26] = Plasma concentration in rat at 1 mg/kg, iv after 0.083 hrs; assay type: ADME, organism-based; design: dose 1 mg/kg, route intravenous; details: Wistar Han
Rattus norvegicus [27] = assay: Concentration in rat brain at 10 mg/kg, po after 1.5 hrs; assay type: ADME, organism-based, Wistar Han; design: dose 10 mg/kg, route oral; details: in vivo
Rattus norvegicus [28] = assay: Concentration in rat brain at 1 mg/kg, iv after 1 hrs; assay type: ADME, organism-based, Wistar Han; design: dose 1 mg/kg, route intravenous; details: in vivo
[29] = target: Transient receptor potential cation channel subfamily V member 1 (Rattus norvegicus) (UniProt O35433); assay: Effect on neuropathic mechanical hyperalgesia in rat at 1 hr; assay type: functional
Transient receptor potential cation channel subfamily V member 1 (Rattus norvegicus), sequence (O35433 whole entry): as the sequence (O35433 whole entry) above

Rattus norvegicus [30] = assay: Concentration in rat brain at 10 mg/kg, po after 2 hrs; assay type: ADME, organism-based, Wistar Han; design: dose 10 mg/kg, route oral; details: in vivo
Rattus norvegicus [31] = assay: Concentration in rat brain at 1 mg/kg, iv after 4 hrs; assay type: ADME, organism-based, Wistar Han; design: dose 1 mg/kg, route intravenous; details: in vivo
Rattus norvegicus [32] = assay: Concentration in rat brain at 3 mg/kg, po after 9 hrs; assay type: ADME, organism-based, Wistar Han; design: dose 3 mg/kg, route oral; details: in vivo
Rattus norvegicus [33] = assay: Concentration in rat brain at 3 mg/kg, po after 1.5 hrs; assay type: ADME, organism-based, Wistar Han; design: dose 3 mg/kg, route oral; details: in vivo
[34] = Plasma concentration in rat at 1 mg/kg, iv after 0.16 hrs; assay type: ADME, organism-based; design: dose 1 mg/kg, route intravenous; details: Wistar Han
[35] = Plasma concentration in rat at 3 mg/kg, po after 2 hrs; assay type: ADME, organism-based; design: dose 3 mg/kg, route oral; details: Wistar Han
[36] = Plasma concentration in rat at 3 mg/kg, po after 9 hrs; assay type: ADME, organism-based; design: dose 3 mg/kg, route oral; details: Wistar Han
Rattus norvegicus [37] = assay: Concentration in rat brain at 3 mg/kg, po after 18 hrs; assay type: ADME, organism-based, Wistar Han; design: dose 3 mg/kg, route oral; details: in vivo
[38] = Plasma concentration in rat at 3 mg/kg, po after 0.5 hrs; assay type: ADME, organism-based; design: dose 3 mg/kg, route oral; details: Wistar Han

Compound Cc1nc2cc(C(C)C)c(-c3ccc(Cl)c(OCC4CC4)c3)cc2c(=O)[nH]1 has a Cmax (Rattus norvegicus [1]) of 1079 pmol/g, a concentration at 0.5 h [2] of 1.18 µM and a concentration at 0.16 h [3] of 0.071 µM. The concentration at 6 h [4] was 1.86 µM, the Ct (Rattus norvegicus [5]) was < 125 pmol/g and the concentration at 9 h [6] was 2.9 µM. The Ct (Rattus norvegicus [7]) was 199 pmol/g, the pIC50 [8] was 6.98 and the Tmax [9] was 0.5 h. It also gave a concentration at 6 h [10] of 0.488 µM, a Ct (Rattus norvegicus [11]) of 449 pmol/g and a concentration at 2 h [12] of 1.08 µM. For the same compound, the Ct (Rattus norvegicus [13]) was 764 pmol/g, the half-life [14] was 3.5 h and the bioavailability [15] was 75%. For the same compound, the concentration at 0.16 h [16] was 0.06 µM, the Cmax (Rattus norvegicus [17]) was 1666 pmol/g and the Ct (Rattus norvegicus [18]) was 351 pmol/g. The Ct (Rattus norvegicus [19]) was 205 pmol/g, the Ct (Rattus norvegicus [20]) was 944 pmol/g and the Ct (Rattus norvegicus [21]) was < 25 pmol/g. It also gave a clearance [22] of 0.315 L/h/kg, a Ct (Rattus norvegicus [23]) of 1042 pmol/g and a half-life [24] of 3.48 h. It also gave a pIC50 [25] of 7.30, a concentration at 0.083 h [26] of 2.65 µM and a Ct (Rattus norvegicus [27]) of 1038 pmol/g. It also gave a Ct (Rattus norvegicus [28]) of 709 pmol/g, an ED50 [29] of 2.6 mg/kg and a Ct (Rattus norvegicus [30]) of 1424 pmol/g. For the same compound, the Ct (Rattus norvegicus [31]) was 155 pmol/g, the Ct (Rattus norvegicus [32]) was 249 pmol/g and the Ct (Rattus norvegicus [33]) was 951 pmol/g. The concentration at 0.16 h [34] was 2.2 µM, the concentration at 2 h [35] was 1.42 µM and the concentration at 9 h [36] was 0.904 µM. For the same compound, the Ct (Rattus norvegicus [37]) was < 125 pmol/g and the concentration at 0.5 h [38] was 0.599 µM.
